Measured values reported in US6525021B1 (priority 1998, dated 2003).
Non-standard residues stand in square brackets, D forms with d. Residues, ends and D or L forms follow the SMILES beside them. *: point of attachment. X1 = CC(=O)N[C@@H]1[C@@H](O[C@@H]2O[C@H](CO)[C@H](O)[C@H](O)[C@H]2O)[C@@H](O)[C@@H](CO)O[C@@H]1*; pGlu = O=C1CC[C@@H](C(=O)O)N1

What was measured:
[1] = mouse, in vivo
[2] = mouse, in vivo; remark: listed apart in the source

Compound	antinociceptive doses relative to doses for locomotor impairment or hypothermia [1]	doses causing long-lasting motor impairment, as multiple of ED50 [1]	duration of motor impairment [1]	time of maximal locomotor impairment post i.t. injection [1]	motor impairment on rotorod compared to vehicle [2]	TD50, rotorod test of minimal motor impairment [1]	time after which motor impairment resolved [1]
CC[C@H](C)[C@H](NC(=O)[C@H](Cc1ccc(O)cc1)NC(=O)[C@@H]1CCCN1C(=O)[C@H](CCCCN)NC(=O)[C@H](CCCCN)NC(=O)[C@@H](NC(=O)[C@H](C)NC(=O)[C@H](CC(N)=O)NC(=O)[C@H](CO)NC(=O)CNC(=O)CNC(=O)[C@H](CCC(=O)O)NC(=O)[C@H](CCC(=O)O)NC(=O)[C@H](CO)NC(=O)[C@@H]1CCC(=O)N1)[C@@H](C)O)C(=O)N[C@@H](CC(C)C)C(=O)O [Thr10-contulakin-G] (HELM PEPTIDE1{[Glp].S.E.E.G.G.S.N.A.T.K.K.P.Y.I.L}$$$$V2.0)	approximately equal doses	≥ 10 fold	2 to 3 h	15 min	no motor impairment		
CC[C@H](C)[C@H](NC(=O)[C@H](Cc1ccc(O)cc1)NC(=O)[C@@H]1CCCN1C(=O)[C@H](CCCCN)NC(=O)[C@H](CCCCN)NC(=O)[C@@H](NC(=O)[C@H](C)NC(=O)[C@H](CC(N)=O)NC(=O)[C@H](CO)NC(=O)CNC(=O)CNC(=O)[C@H](CCC(=O)O)NC(=O)[C@H](CCC(=O)O)NC(=O)[C@H](CO)NC(=O)[C@@H]1CCC(=O)N1)[C@@H](C)O[C@H]1O[C@H](CO)[C@H](O)[C@H](O[C@@H]2O[C@H](CO)[C@H](O)[C@H](O)[C@H]2O)[C@H]1NC(C)=O)C(=O)N[C@@H](CC(C)C)C(=O)O [contulakin-G] ([pGlu]SEEGGSNAT(X1)KKPYIL-OH)	10-100 fold	≥ 100 fold		15 min		10 to 20 pmol	5 h
